As a reminder, the Ki is the dissociation constant of the complex between target and ligand, obtained from inhibition or displacement.

Each structure is given as a SMILES string.

T1 sequence (O00408 1-920 isoform O00408-2): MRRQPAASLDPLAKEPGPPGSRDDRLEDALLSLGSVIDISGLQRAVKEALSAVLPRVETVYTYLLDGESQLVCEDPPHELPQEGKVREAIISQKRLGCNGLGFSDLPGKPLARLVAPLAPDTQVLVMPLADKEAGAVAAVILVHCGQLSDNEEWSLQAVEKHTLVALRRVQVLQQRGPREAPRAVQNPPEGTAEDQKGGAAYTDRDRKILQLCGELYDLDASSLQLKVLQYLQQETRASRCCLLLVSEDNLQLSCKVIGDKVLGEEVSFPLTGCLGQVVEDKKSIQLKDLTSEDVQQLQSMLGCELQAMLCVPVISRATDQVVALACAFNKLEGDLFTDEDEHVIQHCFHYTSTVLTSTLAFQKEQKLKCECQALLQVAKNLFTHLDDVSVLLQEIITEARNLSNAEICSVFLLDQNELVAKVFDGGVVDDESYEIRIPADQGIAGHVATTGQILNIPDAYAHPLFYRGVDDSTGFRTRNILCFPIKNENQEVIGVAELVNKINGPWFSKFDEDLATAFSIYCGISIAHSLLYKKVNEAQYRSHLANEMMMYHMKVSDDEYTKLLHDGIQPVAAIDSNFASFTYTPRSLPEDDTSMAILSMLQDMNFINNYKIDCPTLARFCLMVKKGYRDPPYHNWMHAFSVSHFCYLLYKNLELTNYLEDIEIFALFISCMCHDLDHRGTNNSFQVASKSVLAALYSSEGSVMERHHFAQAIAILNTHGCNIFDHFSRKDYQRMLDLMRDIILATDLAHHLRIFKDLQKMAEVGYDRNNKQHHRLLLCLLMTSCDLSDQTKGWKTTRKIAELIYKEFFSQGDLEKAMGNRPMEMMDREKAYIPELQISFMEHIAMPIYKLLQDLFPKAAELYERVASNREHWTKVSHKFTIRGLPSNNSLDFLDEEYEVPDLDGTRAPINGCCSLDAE

This experiment has as its target T1, human PDE2A1 (Homo sapiens, UniProt O00408).
T1 construct: GST; purchased BPS Bioscience (San Diego, Calif.) 60020; host or cells: insect cells
In words: IMAP FP PDE selectivity panel, human PDE2A1. It counts as biochemical. The settings on record: Lab B; read-out: Human PDE2 Ki (nM) Lab B. Put shortly: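 IMAP FP read-out, run at room temperature in parallel with PDE1–11: enzyme at 20% substrate conversion, 50 nM FAM-cAMP containing 1000 nM cGMP, Tris pH 7.2/MgCl2/DTT buffer. Compounds as ten 3-fold dilutions. Reaction 60 min, stopped with binding reagent for 1 h before polarization measurement.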
As for `CN(C)c1cc(N[C@@H](c2ccc(C(F)(F)F)c(F)c2)C(C)(C)O)n2ncnc2n1` (single isomer, unassigned) [Example 244], the Ki turned out to be 377 nM. Then `Cc1cc(NC(c2ccc(OC(F)F)cc2)C(C)(C)O)n2ncnc2n1` (single isomer, unassigned) [Example 110, (1S or R)-1-[4-(Difluoro-methoxy)phenyl]-2-methyl-1-[(5-methyl[1,2,4]triazolo[1,5-a]pyrimidin-7-yl)amino]propan-2-ol], with > 2960 nM; and `Cc1cc(N[C@@H](c2ccc(C(F)(F)F)cc2)[C@@H](C)O)n2ncnc2n1` [Example 89, (1S,2R)-1-[(5-Methyl[1,2,4]triazolo[1,5-a]pyrimidin-7-yl)amino]-1-[4-(trifluoromethyl)phenyl]propan-2-ol], with 82 nM. In the case of `Cc1cc(N[C@@H](c2ccc(S(F)(F)(F)(F)F)cc2)C2(C)CC2)n2ncnc2n1` [Example 44, 5-Methyl-N-{(R)-(1-methylcyclopropyl)[4-(pentafluoro-λ^6-sulfanyl)phenyl]methyl} [1,2,4]triazolo[1,5-a]pyrimidin-7-amine], the Ki came out at 18 nM. Under `CC(C)(O)C(Nc1cc(C2CC2)nc2ncnn12)c1ccc(S(F)(F)(F)(F)F)cc1` (single isomer, unassigned) [Example 144, (1S or R)-1-[(5- Cyclopropyl [1,2,4]triazolo [1,5-a]pyrimidin-7-yl)amino]-2-methyl-1-[4-(pentafluoro-λ^6-sulfanyl)phenyl]propan-2-ol] stands > 2960 nM. In the case of `Cc1cc(N[C@@H](c2ccc(C(F)(F)F)c(F)c2)C(C)(C)C)n2nc(CO)nc2n1` [Example 206, (R)-(7-(1-(3-Fluoro-4-(trifluoromethyl)phenyl)-2,2-dimethylpropylamino)-5-methyl-[1,2,4]triazolo [1,5-a]pyrimidin-2-yl)methanol], the inhibition constant Ki was 184 nM. Consider `Cc1cc(N[C@@H](c2ccc(CC(F)(F)F)cc2)C(C)(C)C)n2ncnc2n1` [Example 35, N-{(1R)-2,2-Dimethyl-1-[4-(2,2,2-trifluoroethyl)phenyl]propyl}-5-methyl[1,2,4]triazolo[1,5-a] pyrimidin-7-amine], for which the Ki turned out to be 7.8 nM. With `CC(C)(O)C(Nc1cc(Cl)nc2ncnn12)c1ccc(C(F)(F)F)c(F)c1` (single isomer, unassigned) [Example 224, (S)- or (R)-1-(5-Chloro-[1,2,4]triazolo [1,5-a]pyrimidin-7-ylamino)-1-(3-fluoro-4-(trifluoromethyl)phenyl)-2-methylpropan-2-ol], the Ki turned out to be 612 nM. Consider `Cc1cc(NC(C)(C)c2ccc(OC(F)(F)F)cc2F)n2ncnc2n1` [Example 51, N-{1-[2-Fluoro-4-(trifluoromethoxy)phenyl]-1-methylethyl}-5-methyl [1,2,4]triazolo[1,5-a]pyrimidin-7-amine], for which the Ki turned out to be 206 nM. With `Fc1cc(C2(Nc3cncc4ncnn34)CC2)ccc1C(F)(F)F` [Example 285, N-{1-[3-Fluoro-4-(trifluoromethyl)phenyl]cyclopropyl}[1,2,4]triazolo [1,5-a]pyrazin-5-amine], the inhibition constant Ki was determined as 22 nM. Under `Cc1cc(N[C@@H](c2ccc(OC(F)(F)F)cc2Cl)C(C)(C)O)n2ncnc2n1` [Example 100, (1S)-1-[2-Chloro-4-(trifluoromethoxy)phenyl]-2-methyl-1-[(5-methyl[1,2,4]triazolo[1,5-a]pyrimidin-7-yl)amino]propan-2-ol] stands 4.3 nM; under `CC1(c2ccc(C(Nc3cc(C(F)(F)F)nc4ncnn34)C(C)(C)O)cc2)CC1` (single isomer, unassigned) [Example 180, (1R or S)-2-Methyl-1-[4-(1-methylcyclopropyl)phenyl]-1-{[5-(trifluoromethyl) [1,2,4]triazolo [1,5-a]pyrimidin-7-yl]amino} propan-2-ol], 12 nM. Then `Cc1cc(N[C@@H](c2ccc(C(F)(F)F)c(F)c2)C(C)(C)C)n2ncnc2c1` [Example 264, (R)—N-{1-[3-Fluoro-4-(trifluoromethyl)phenyl]-2,2-dimethylpropyl}-7-methyl-[1,2,4]triazolo[1,5-a]pyridin-5-amine], with 292 nM.

These data come from US10357481B2 (MERCK SHARP & DOHME CORP., priority 2015, dated 2019).
